Usually IC50 stands for the concentration at which inhibition is half-maximal.

Data on 34 molecules can be found in patent publication US20190134005A1 (BioMarin Pharmaceutical Inc., priority 2016, published 2019).

This assay has as its target T1, human CGT (Homo sapiens, UniProt Q16880).
T1 sequence (Q16880 21-541): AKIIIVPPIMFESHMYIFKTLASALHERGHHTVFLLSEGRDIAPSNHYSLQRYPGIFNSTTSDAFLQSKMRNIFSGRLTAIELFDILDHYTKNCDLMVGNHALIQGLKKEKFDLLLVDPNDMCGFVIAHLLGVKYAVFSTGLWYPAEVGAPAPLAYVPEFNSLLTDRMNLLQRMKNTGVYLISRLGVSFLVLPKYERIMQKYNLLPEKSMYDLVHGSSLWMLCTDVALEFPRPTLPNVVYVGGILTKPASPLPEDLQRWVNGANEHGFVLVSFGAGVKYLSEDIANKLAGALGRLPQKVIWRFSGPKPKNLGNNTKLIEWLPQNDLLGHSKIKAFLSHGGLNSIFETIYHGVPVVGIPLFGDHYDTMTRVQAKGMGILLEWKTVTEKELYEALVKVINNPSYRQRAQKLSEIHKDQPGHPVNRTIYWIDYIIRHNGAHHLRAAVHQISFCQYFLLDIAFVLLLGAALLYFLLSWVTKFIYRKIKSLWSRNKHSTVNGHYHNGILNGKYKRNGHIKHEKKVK
As to the kind of experiment: Assay 1: CGT Enzymatic Assay (RapidFire/MS/MS, 0.01% Tween 80). The assay is classed as biochemical. Particulars: Table 1, Compounds of Formula (I) and Formula (II); CGT enzymatic assay; read-out: IC50.

Take `COc1cccc(C2(O)[C@@H](C)N(c3ccc(Br)cc3)C(=O)N2c2ccc(Br)cc2)c1` (stereo partly drawn) [Compound 71-2, (5R)-1,3-bis(4-bromophenyl)-4-hydroxy-4-(3-methoxyphenyl)-5-methylimidazolidin-2-one]: the IC50 is less than 1000 nM.

As for `N#Cc1cccc(C2(O)N(c3ccc(Cl)cc3)C(=O)N(c3ccc(Cl)cc3)C23CCC3)c1` (stereo not shown) [Compound 72, 3-(5,7-bis(4-chlorophenyl)-8-hydroxy-6-oxo-5,7-diazaspiro[3.4]octan-8-yl)benzonitrile], the IC50 was less than 1000 nM.

On to `CC1N(c2ccc(Br)cc2)C(=O)N(c2ccc(Br)cc2)C1(O)c1cccc(Cl)c1` (stereo not shown) [Compound 73, 1,3-bis(4-bromophenyl)-4-(3-chlorophenyl)-4-hydroxy-5-methylimidazolidin-2-one], for which the IC50 is less than 1000 nM.

On to `C[C@@H]1N(c2ccc(Br)cc2)C(=O)N(c2ccc(Br)cc2)C1(O)c1cccc(Cl)c1` (stereo partly drawn) [Compound 73-1, (5S)-1,3-bis(4-bromophenyl)-4-(3-chlorophenyl)-4-hydroxy-5-methylimidazolidin-2-one], for which the IC50 was less than 1000 nM.

Consider `C[C@H]1N(c2ccc(Br)cc2)C(=O)N(c2ccc(Br)cc2)C1(O)c1cccc(Cl)c1` (stereo partly drawn) [Compound 73-2, (5R)-1,3-bis(4-bromophenyl)-4-(3-chlorophenyl)-4-hydroxy-5-methylimidazolidin-2-one], for which the IC50 is less than 1000 nM.

For `C[C@@H]1N(c2ccc(Br)cc2)C(=O)N(c2ccc(Br)cc2)C1(O)c1cccc(C(F)(F)F)c1` (stereo partly drawn) [Compound 74-1, (5S)-1,3-bis(4-bromophenyl)-4-hydroxy-5-methyl-4-(3-(trifluoromethyl)phenyl)imidazolidin-2-one], the IC50 was less than 1000 nM.

In the case of `C[C@H]1N(c2ccc(Br)cc2)C(=O)N(c2ccc(Br)cc2)C1(O)c1cccc(C(F)(F)F)c1` (stereo partly drawn) [Compound 74-2, (5R)-1,3-bis(4-bromophenyl)-4-hydroxy-5-methyl-4-(3-(trifluoromethyl)phenyl)imidazolidin-2-one], the IC50 is less than 1000 nM.

For the molecule `CC[C@@H]1N(c2ccc(Cl)cc2)C(=O)N(c2ccc(Cl)cc2)C1(O)c1cccc(C)c1` (stereo partly drawn) [Compound 75-1, (5S)-1,3-bis(4-chlorophenyl)-5-ethyl-4-hydroxy-4-(m-tolyl)imidazolidin-2-one], the IC50 was less than 1000 nM.

For `CC[C@H]1N(c2ccc(Cl)cc2)C(=O)N(c2ccc(Cl)cc2)C1(O)c1cccc(C)c1` (stereo partly drawn) [Compound 75-2, (5R)-1,3-bis(4-chlorophenyl)-5-ethyl-4-hydroxy-4-(m-tolyl)imidazolidin-2-one], the IC50 was less than 1000 nM.

On to `CC[C@@H]1N(c2ccc(Br)cc2)C(=O)N(c2ccc(Br)cc2)C1(O)c1cccc(C)c1` (stereo partly drawn) [Compound 76-1, (5S)-1,3-bis(4-bromophenyl)-5-ethyl-4-hydroxy-4-(m-tolyl)imidazolidin-2-one], for which the IC50 is less than 1000 nM.

With `CC[C@H]1N(c2ccc(Br)cc2)C(=O)N(c2ccc(Br)cc2)C1(O)c1cccc(C)c1` (stereo partly drawn) [Compound 76-2, (5R)-1,3-bis(4-bromophenyl)-5-ethyl-4-hydroxy-4-(m-tolyl)imidazolidin-2-one], the IC50 was less than 1000 nM.

In the case of `C[C@H]1N(c2ccc(Cl)cc2)C(=O)N(c2ccc(Cl)cc2)C1(O)c1cccc(C(F)(F)F)c1` (stereo partly drawn) [Compound 77-2, (5R)-1,3-bis(4-chlorophenyl)-4-hydroxy-5-methyl-4-(3-(trifluoromethyl)phenyl)imidazolidin-2-one], the IC50 was less than 1000 nM.

Take `O=C1N(c2ccc(Cl)cc2)CC(O)(c2cccc(C3CC3)c2)N1c1ccc(Cl)cc1` (stereo not shown) [Compound 78, 1,3-bis(4-chlorophenyl)-4-(3-cyclopropylphenyl)-4-hydroxyimidazolidin-2-one]: the IC50 lay within 1000 to 10000 nM.

Regarding `CCOc1cccc(C2(O)CN(c3ccc(Br)cc3)C(=O)N2c2ccc(Br)cc2)c1` (stereo not shown) [Compound 79, 1,3-bis(4-bromophenyl)-4-(3-ethoxyphenyl)-4-hydroxyimidazolidin-2-one], the IC50 lay in the range of 1000 to 10000 nM.

For the molecule `CC[C@@H]1N(c2ccc(Cl)cc2)C(=O)N(c2ccc(Cl)cc2)C1(O)c1cccc(C(F)(F)F)c1` (stereo partly drawn) [Compound 80-1, (5S)-1,3-bis(4-chlorophenyl)-5-ethyl-4-hydroxy-4-(3-(trifluoromethyl)phenyl)imidazolidin-2-one], the IC50 is less than 1000 nM.

As to `CC[C@H]1N(c2ccc(Cl)cc2)C(=O)N(c2ccc(Cl)cc2)C1(O)c1cccc(C(F)(F)F)c1` (stereo partly drawn) [Compound 80-2, (5R)-1,3-bis(4-chlorophenyl)-5-ethyl-4-hydroxy-4-(3-(trifluoromethyl)phenyl)imidazolidin-2-one], the IC50 is less than 1000 nM.

Take `CCC1N(c2ccc(Cl)cc2)C(=O)N(c2ccc(Cl)cc2)C1(O)c1cccc(Cl)c1` (stereo not shown) [Compound 81, 4-(3-chlorophenyl)-1,3-bis(4-chlorophenyl)-5-ethyl-4-hydroxyimidazolidin-2-one]: the IC50 was less than 1000 nM.

Take `CC[C@@H]1N(c2ccc(Cl)cc2)C(=O)N(c2ccc(Cl)cc2)C1(O)c1cccc(Cl)c1` (stereo partly drawn) [Compound 81-1, (5S)-4-(3-chlorophenyl)-1,3-bis(4-chlorophenyl)-5-ethyl-4-hydroxyimidazolidin-2-one]: the IC50 is less than 1000 nM.

Consider `CC[C@H]1N(c2ccc(Cl)cc2)C(=O)N(c2ccc(Cl)cc2)C1(O)c1cccc(Cl)c1` (stereo partly drawn) [Compound 81-2, (5R)-4-(3-chlorophenyl)-1,3-bis(4-chlorophenyl)-5-ethyl-4-hydroxyimidazolidin-2-one], for which the IC50 was less than 1000 nM.

For the molecule `CCC1N(c2ccc(Cl)cc2)C(=O)N(c2ccc(Cl)cc2)C1(O)c1cccc(OC(F)(F)F)c1` (stereo not shown) [Compound 82, 1,3-bis(4-chlorophenyl)-5-ethyl-4-hydroxy-4-(3-(trifluoromethoxy)phenyl)imidazolidin-2-one], the IC50 is less than 1000 nM.

For `CCC1N(c2ccc(Br)cc2)C(=O)N(c2ccc(Br)cc2)C1(O)c1cccc(OC(F)(F)F)c1` (stereo not shown) [Compound 83, 1,3-bis(4-bromophenyl)-5-ethyl-4-hydroxy-4-(3-(trifluoromethoxy)phenyl)imidazolidin-2-one], the IC50 is less than 1000 nM.

With `O=C1N(c2ccc(Cl)cc2)CC(O)(c2cc(Cl)cc(Cl)c2)N1c1ccc(Cl)cc1` (stereo not shown) [Compound 85, 1,3-bis(4-chlorophenyl)-4-(3,5-dichlorophenyl)-4-hydroxyimidazolidin-2-one], the IC50 lay in the range of 1000 to 10000 nM.

With `O=C1N(c2ccc(Br)cc2)[C@@H](c2ccccc2)C(O)(c2ccccc2)N1c1ccc(Br)cc1` (stereo partly drawn) [Compound 86-1, (5S)-1,3-bis(4-bromophenyl)-4-hydroxy-4,5-diphenylimidazolidin-2-one], the IC50 lay within 10000 to 50000 nM.

Take `O=C1N(c2ccc(Br)cc2)[C@H](c2ccccc2)C(O)(c2ccccc2)N1c1ccc(Br)cc1` (stereo partly drawn) [Compound 86-2, (5R)-1,3-bis(4-bromophenyl)-4-hydroxy-4,5-diphenylimidazolidin-2-one]: the IC50 fell in the range of 1000 to 10000 nM.

In the case of `CCCC1N(c2ccc(Cl)cc2)C(=O)N(c2ccc(Cl)cc2)C1(O)c1cccc(C(F)(F)F)c1` (stereo not shown) [Compound 87, 1,3-bis(4-chlorophenyl)-4-hydroxy-5-propyl-4-(3-(trifluoromethyl)phenyl)imidazolidin-2-one], the IC50 was less than 1000 nM.

Turning to `CCC[C@H]1N(c2ccc(Cl)cc2)C(=O)N(c2ccc(Cl)cc2)C1(O)c1cccc(C(F)(F)F)c1` (stereo partly drawn) [Compound 87-2, (5R)-1,3-bis(4-chlorophenyl)-4-hydroxy-5-propyl-4-(3-(trifluoromethyl)phenyl)imidazolidin-2-one], the IC50 was less than 1000 nM.

As for `CCCC1N(c2ccc(Br)cc2)C(=O)N(c2ccc(Br)cc2)C1(O)c1cccc(CC)c1` (stereo not shown) [Compound 88, 1,3-bis(4-bromophenyl)-4-(3-ethylphenyl)-4-hydroxy-5-propylimidazolidin-2-one], the IC50 was less than 1000 nM.

As for `CCC[C@@H]1N(c2ccc(Br)cc2)C(=O)N(c2ccc(Br)cc2)C1(O)c1cccc(CC)c1` (stereo partly drawn) [Compound 88-1, (5S)-1,3-bis(4-bromophenyl)-4-(3-ethylphenyl)-4-hydroxy-5-propylimidazolidin-2-one], the IC50 is less than 1000 nM.

For `CCC[C@H]1N(c2ccc(Br)cc2)C(=O)N(c2ccc(Br)cc2)C1(O)c1cccc(CC)c1` (stereo partly drawn) [Compound 88-2, (5R)-1,3-bis(4-bromophenyl)-4-(3-ethylphenyl)-4-hydroxy-5-propylimidazolidin-2-one], the IC50 was less than 1000 nM.

With `CCCC1N(c2ccc(Cl)cc2)C(=O)N(c2ccc(Cl)cc2)C1(O)c1cccc(CC)c1` (stereo not shown) [Compound 89, 1,3-bis(4-chlorophenyl)-4-(3-ethylphenyl)-4-hydroxy-5-propylimidazolidin-2-one], the IC50 is less than 1000 nM.

As for `CCC[C@@H]1N(c2ccc(Cl)cc2)C(=O)N(c2ccc(Cl)cc2)C1(O)c1cccc(CC)c1` (stereo partly drawn) [Compound 89-1, (5S)-1,3-bis(4-chlorophenyl)-4-(3-ethylphenyl)-4-hydroxy-5-propylimidazolidin-2-one], the IC50 is less than 1000 nM.

For `CCC[C@H]1N(c2ccc(Cl)cc2)C(=O)N(c2ccc(Cl)cc2)C1(O)c1cccc(CC)c1` (stereo partly drawn) [Compound 89-2, (5R)-1,3-bis(4-chlorophenyl)-4-(3-ethylphenyl)-4-hydroxy-5-propylimidazolidin-2-one], the IC50 is less than 1000 nM.

With `CCCC1N(c2ccc(Cl)cc2)C(=O)N(c2ccc(Cl)cc2)C1(O)c1cccc(C)c1` (stereo not shown) [Compound 90, 1,3-bis(4-chlorophenyl)-4-hydroxy-5-propyl-4-(m-tolyl)imidazolidin-2-one], the IC50 was less than 1000 nM.

Turning to `CCC[C@@H]1N(c2ccc(Cl)cc2)C(=O)N(c2ccc(Cl)cc2)C1(O)c1cccc(C)c1` (stereo partly drawn) [Compound 90-1, (5S)-1,3-bis(4-chlorophenyl)-4-hydroxy-5-propyl-4-(m-tolyl)imidazolidin-2-one], the IC50 is less than 1000 nM.
